# Data from ChEMBL document CHEMBL4706515, “Discovery of new [1,2,4] Triazolo[1,5-a]Pyrimidine derivatives that Kill gastric cancer cells via the mitochondria pathway” (Eur J Med Chem, 2020).
# Calls of active or inactive are those of the source. No cut-off for these calls is given here.
# Assays:
# MGC-803 [1] = test: Induction of apoptosis in human MGC-803 cells assessed as early apoptotic cells at 10 uM measure after 24 hrs by Annexin-PI staining based Flowcytometry method (reference value: 9.8%); type: functional
# MGC-803 [2] = test: Induction of apoptosis in human MGC-803 cells assessed as necrotic cells at 5 uM measure after 24 hrs by Annexin-PI staining based Flowcytometry method (reference value: 3.13%); type: functional
# MGC-803 [3] = test: Induction of apoptosis in human MGC-803 cells assessed as necrotic cells at 1.25 uM measure after 24 hrs by Annexin-PI staining based Flowcytometry method (reference value: 3.13%); type: functional
# SGC-7901 [4] = test: Induction of apoptosis in human SGC-7901 cells assessed as necrotic cells at 1.25 uM measure after 24 hrs by Annexin-PI staining based Flowcytometry method (reference value: 1.16%); type: functional
# MGC-803 [5] = test: Induction of apoptosis in human MGC-803 cells assessed as late apoptotic cells at 1.25 uM measure after 24 hrs by Annexin-PI staining based Flowcytometry method (reference value: 7.06%); type: functional
# MGC-803 [6] = test: Induction of morphological changes in human MGC-803 cells assessed as cell shrinkage at 5 uM incubated for 1 hrs by bright field microscopic analysis; type: functional, cell-based
# SGC-7901 [7] = test: Induction of apoptosis in human SGC-7901 cells assessed as early apoptotic cells at 1.25 uM measure after 24 hrs by Annexin-PI staining based Flowcytometry method (reference value: 2.68%); type: functional
# MGC-803 [8] = test: Induction of mitochondrial membrane potential loss in human MGC-803 cells at 2.5 uM measured after 24 hrs by fluorescence method; settings: Mitochondria
# EJ = test: Antiproliferative activity against human EJ cells assessed as inhibition of cell growth at measured after 72 hrs by SRB assay; type: functional
# SGC-7901 [9] = test: Induction of apoptosis in human SGC-7901 cells assessed as late apoptotic cells at 5 uM measure after 24 hrs by Annexin-PI staining based Flowcytometry method (reference value: 1.29%); type: functional
# MGC-803 [10] = test: Inhibition of cell proliferation in human MGC-803 cells at 5 uM measured by SRB assay; type: functional, cell-based; settings: time 72.0 hrs
# MGC-803 [11] = test: Cell cycle arrest in human MGC-803 cells assessed as accumulation of cells in G2/M phase at 5 uM measured after 24 hrs by PI staining based flow cytometry; type: functional
# MGC-803 [12] = test: Induction of mitochondrial membrane potential loss in human MGC-803 cells at 1.25 uM measured after 24 hrs by JC-1 staining based flow cytometry method (reference value: 0.344%); settings: Mitochondria
# MGC-803 [13] = test: Induction of apoptosis in human MGC-803 cells assessed as accumulation of cleaved caspase 3 protein at 0.625 to 10 uM measured after 24 hrs by western blot assay; type: functional, cell-based; settings: dose 0.625-10 µM
# MGC-803 [14] = test: Inhibition of cell proliferation in human MGC-803 cells at 2.5 uM measured after 72 hrs by SRB assay; type: functional, cell-based
# SGC-7901 [15] = test: Antiproliferative activity against human SGC-7901 cells assessed as inhibition of cell growth at measured after 72 hrs by SRB assay; type: functional
# MGC-803 [16] = test: Induction of apoptosis in human MGC-803 cells assessed as viable cells at 2.5 uM measure after 24 hrs by Annexin-PI staining based Flowcytometry method (reference value: 80%); type: functional; settings: read-out: Activity
# MGC-803 [17] = test: Induction of apoptosis in human MGC-803 assessed by cleaved PARP levels incubated for 1 hr with Z-LEHD-FMK followed by compound addition measured by western blot assay; type: functional, cell-based
# MGC-803 [18] = test: Induction of apoptosis in human MGC-803 cells assessed as increase in accumulation of LC3B-2 measured after 24 hrs by western blot assay; type: functional, cell-based
# MGC-803 [19] = test: Induction of apoptosis in human MGC-803 cells assessed as early apoptotic cells at 5 uM measure after 24 hrs by Annexin-PI staining based Flowcytometry method (reference value: 9.8%); type: functional
# GES1 = test: Cytotoxicity against human GES1 cells assessed as inhibition of cell growth at measured after 72 hrs by SRB assay; type: cell-based; settings: ges1, 72 h
# MGC-803 [20] = test: Induction of apoptosis in human MGC-803 cells assessed as late apoptotic cells at 0.625 uM measure after 24 hrs by Annexin-PI staining based Flowcytometry method (reference value: 7.06%); type: functional
# A549 = test: Antiproliferative activity against human A549 cells assessed as inhibition of cell growth at measured after 72 hrs by SRB assay; type: functional
# SGC-7901 [21] = test: Inhibition of cell proliferation in human SGC-7901 cells at 5 uM measured after 72 hrs by SRB assay; type: functional, cell-based
# MGC-803 [22] = test: Induction of apoptosis in human MGC-803 cells assessed as increase in ROS production at 10 uM measured after 24 hrs by DCHF-DA staining based Flowcytometry method; type: functional, cell-based
# SGC-7901 [23] = test: Induction of apoptosis in human SGC-7901 cells assessed as necrotic cells at 2.5 uM measure after 24 hrs by Annexin-PI staining based Flowcytometry method (reference value: 1.16%); type: functional
# SGC-7901 [24] = test: Induction of apoptosis in human SGC-7901 cells assessed as necrotic cells at 10 uM measure after 24 hrs by Annexin-PI staining based Flowcytometry method (reference value: 1.16%); type: functional
# SGC-7901 [25] = test: Induction of apoptosis in human SGC-7901 cells assessed as early apoptotic cells at 2.5 uM measure after 24 hrs by Annexin-PI staining based Flowcytometry method (reference value: 2.68%); type: functional
# SGC-7901 [26] = test: Inhibition of cell proliferation in human SGC-7901 cells at 2.5 uM measured after 72 hrs by SRB assay; type: functional, cell-based
# MGC-803 [27] = test: Antiproliferative activity against human MGC-803 cells assessed as inhibition of cell growth incubated with compound for 1 to 24 hrs and measured 72 hrs after replacement of media by SRB assay; type: functional, cell-based; settings: time 1-24 hrs
# MKN-45 = test: Antiproliferative activity against human MKN-45 cells assessed as inhibition of cell growth at measured after 72 hrs by SRB assay; type: functional
# MGC-803 [28] = test: Induction of apoptosis in human MGC-803 cells assessed as viable cells at 0.625 uM measure after 24 hrs by Annexin-PI staining based Flowcytometry method (reference value: 80%); type: functional; settings: read-out: Activity
# SGC-7901 [29] = test: Induction of apoptosis in human SGC-7901 cells assessed as late apoptotic cells at 1.25 uM measure after 24 hrs by Annexin-PI staining based Flowcytometry method (reference value: 1.29%); type: functional
# MGC-803 [30] = test: Inhibition of cell proliferation in human MGC-803 cells at 10 uM measured by SRB assay; type: functional, cell-based; settings: time 72.0 hrs
# MGC-803 [31] = test: Induction of apoptosis in human MGC-803 cells assessed as increase in ROS production preincubated for 1 hr with NAC followed by compound addition at 5 uM measured after 24 hrs by DCHF-DA staining based Flowcytometry method; type: functional, cell-based
# BGC-823 = test: Antiproliferative activity against human BGC-823 cells assessed as inhibition of cell growth at measured after 72 hrs by SRB assay; type: functional
# MGC-803 [32] = test: Cytotoxicity against human MGC-803 cells assessed as inhibition of cell viability incubated for 1 hr with Z-LEHD-FMK followed by addition of compound; type: functional, cell-based
# MGC-803 [33] = test: Induction of apoptosis in human MGC-803 cells assessed as late apoptotic cells at 2.5 uM measure after 24 hrs by Annexin-PI staining based Flowcytometry method (reference value: 7.06%); type: functional
structure (smiles),measurement,setting,value
Cc1cc(Nc2ccc(C(=O)/C=C/c3cccc(Br)n3)cc2)n2nc(SCc3nc4ccccc4[nH]3)nc2n1,Activity,MGC-803 [1],9.48%
same,Activity,MGC-803 [2],4.51%
same,Activity,MGC-803 [3],2.25%
same,Activity,SGC-7901 [4],2.24%
same,Activity,MGC-803 [5],1.95%
same,Activity,MGC-803 [6],Active
same,Activity,SGC-7901 [7],1.59%
same,Activity,MGC-803 [8],Active
same,GI50,EJ,> 10000 nM
same,Activity,SGC-7901 [9],29.8%
same,inhibition,MGC-803 [10],Active
same,Activity,MGC-803 [11],Active
same,Activity,MGC-803 [12],10.1%
same,Activity,MGC-803 [13],Active
same,inhibition,MGC-803 [14],inactive
same,GI50,SGC-7901 [15],640 nM
same,viability at 2.5 µM,MGC-803 [16],86.4%
same,Activity,MGC-803 [17],inactive
same,Activity,MGC-803 [18],Active
same,Activity,MGC-803 [19],6.25%
same,Activity,GES1,Non-Toxic
same,Activity,MGC-803 [20],1.81%
same,GI50,A549,> 10000 nM
same,inhibition,SGC-7901 [21],Active
same,Activity,MGC-803 [22],Active
same,Activity,SGC-7901 [23],1.15%
same,Activity,SGC-7901 [24],4.79%
same,Activity,SGC-7901 [25],5%
same,inhibition,SGC-7901 [26],inactive
same,inhibition,MGC-803 [27],Active
same,GI50,MKN-45,640 nM
same,viability at 0.625 µM,MGC-803 [28],91.6%
same,Activity,SGC-7901 [29],1.37%
same,inhibition,MGC-803 [30],Active
same,Activity,MGC-803 [31],inactive
same,GI50,BGC-823,640 nM
same,inhibition,MGC-803 [32],inactive
same,Activity,MGC-803 [33],4.7%
